According to ChEMBL document CHEMBL1212812, “Multi-target spectral moment QSAR versus ANN for antiparasitic drugs against different parasite species” (Bioorg Med Chem, 2010):

Legend:
Assay type in all cases: functional, organism-based
Leishmania infantum = assay: Antimicrobial activity against Leishmania infantum
Trichomonas vaginalis = assay: Antimicrobial activity against Trichomonas vaginalis
Trypanosoma cruzi = assay: Antimicrobial activity against Trypanosoma cruzi
[1] = test system: Trypanosoma brucei brucei; assay: Antimicrobial activity against Trypanosoma brucei brucei
Leishmania donovani = assay: Antimicrobial activity against Leishmania donovani
Plasmodium falciparum = assay: Antimicrobial activity against Plasmodium falciparum

IC50 (Leishmania infantum)	IC50 (Trichomonas vaginalis)	SMILES	further results
1 µM	200 µM	CCCNc1nc2ccc([N+](=O)[O-])cc2s1	–
–	–	N#CSCCOc1ccc(Nc2ccccc2)cc1	IC50 (Trypanosoma cruzi; Trypanosoma cruzi): 3 µM
–	–	C(/C=C/c1ccc2c(c1)OCO2)=C\CN1CCCCC1	IC50 (Trypanosoma cruzi; Trypanosoma cruzi): 10 µM
–	–	CCN(CC)c1c([N+](=O)[O-])cc(S(=O)(=O)Nc2ccccc2)cc1[N+](=O)[O-]	IC50 [1]: 3 µM
10 µM	214 µM	Nc1ccc2nc(N3CCCCC3)sc2c1	–
–	–	O=C(O)/C=C/C=C/c1ccc2c(c1)OCO2 [PIPERIC ACID]	IC50 (Trypanosoma cruzi; Trypanosoma cruzi): 115 µM
–	–	O=C(Cn1ccnc1[N+](=O)[O-])NCc1ccccc1 [BENZNIDAZOLE]	IC50 (Trypanosoma cruzi; Trypanosoma cruzi): 3 µM
–	–	O=C(/C=C/C=C/c1ccc2c(c1)OCO2)N1CCCCC1 [PIPERINE]	IC50 (Trypanosoma cruzi; Trypanosoma cruzi): 5 µM
19 µM	200 µM	Nc1ccc2nc(Nc3cccc(O)c3)sc2c1	–
–	–	O=C(/C=C/c1ccc2c(c1)OCO2)N1CCCCC1 [ILEPCIMIDE]	IC50 (Trypanosoma cruzi; Trypanosoma cruzi): 97 µM
68 µM	26 µM	CN(C)c1ccc(Nc2nc3ccc(Nc4ccccc4C(=O)O)cc3s2)cc1	–
–	–	CCCN(CCC)c1c([N+](=O)[O-])cc(S(=O)(=O)Nc2cccc(C)c2)cc1[N+](=O)[O-]	IC50 [1]: 2 µM
–	–	N#CSCCOc1ccc([S+]([O-])c2ccccc2)cc1 (configuration not stated)	IC50 (Trypanosoma cruzi; Trypanosoma cruzi): 8 µM
–	–	CCCN(CCC)c1c([N+](=O)[O-])cc(S(=O)(=O)NC2CC2)cc1[N+](=O)[O-]	IC50 [1]: 3 µM
–	–	N#CSCCOc1ccc2[nH]c3ccccc3c2c1	IC50 (Trypanosoma cruzi; Trypanosoma cruzi): 10 µM
–	–	CC(=O)N1CCN(c2ccc(OCC3COC(Cn4ccnc4)(c4ccc(Cl)cc4Cl)O3)cc2)CC1 (configuration not stated) [KETOCONAZOLE]	IC50 (Leishmania donovani): 2 µM; IC50 (Trypanosoma cruzi; Trypanosoma cruzi): 3 µM
–	–	CCCN(CCC)c1ccc(S(=O)(=O)N([N+](=O)[O-])[N+](=O)[O-])cc1	IC50 (Leishmania donovani): 65 µM; IC50 [1]: 12 µM
2 µM	134 µM	CCN(CC)CCCNc1nc2ccc(Nc3ccccc3C(=O)O)cc2s1	–
–	–	CCCN(CCC)c1c([N+](=O)[O-])cc(S(=O)(=O)NC(C)C)cc1[N+](=O)[O-]	IC50 (Leishmania donovani): 100 µM; IC50 [1]: 4 µM
–	–	CCCN(CCC)c1c([N+](=O)[O-])cc(S(=O)(=O)NC)cc1[N+](=O)[O-]	IC50 (Leishmania donovani): 100 µM; IC50 [1]: 5 µM
2 µM	125 µM	Nc1nc2ccc(Nc3ccccc3C(=O)O)cc2s1	–
–	–	Cn1c2nc3ccc(C#N)cc3c-2cc2cc(F)ccc21	IC50 (Trypanosoma cruzi; Trypanosoma cruzi): 32 µM
–	–	CCCN(CCC)c1c([N+](=O)[O-])cc(S(=O)(=O)NCC)cc1[N+](=O)[O-]	IC50 (Leishmania donovani): 100 µM; IC50 [1]: 5 µM
–	–	C[S+]([O-])CCCCN=C=S (configuration not stated) [SULFORAPHANE]	IC50 (Trypanosoma cruzi): 102 µM; IC50 (Trypanosoma cruzi; Trypanosoma cruzi): 120 µM

IC50 (Leishmania infantum)	IC50 (Trichomonas vaginalis)	SMILES	further results
10 µM	156 µM	COc1cc(NS(C)(=O)=O)ccc1Nc1nc2ccc(N)cc2s1	–
–	–	CCCNS(=O)(=O)c1cc([N+](=O)[O-])c(N(CCC)CCC)c([N+](=O)[O-])c1	IC50 [1]: 9 µM
–	–	Nc1nc(N)nc(N/N=C\c2ccc([N+](=O)[O-])s2)n1	IC50 [1]: 1 µM
39 µM	76 µM	CCCNc1nc2ccc(Nc3ccccc3C(=O)O)cc2s1	–
–	–	CNc1nc(NC)nc(NN)n1	IC50 [1]: 200 µM
–	–	CCCN(CCC)c1c([N+](=O)[O-])cc(S(=O)(=O)N2CCCC2)cc1[N+](=O)[O-]	IC50 [1]: 7 µM
4 µM	49 µM	CCN(CC)CCCNc1nc2ccc([N+](=O)[O-])cc2s1	–
–	–	NNc1nc(N)nc(N)n1	IC50 [1]: 200 µM
18 µM	83 µM	COc1cc(NS(C)(=O)=O)ccc1Nc1nc2ccc([N+](=O)[O-])cc2s1	–
54 µM	200 µM	Nc1ccc2nc(Cl)sc2c1	–
51 µM	200 µM	Nc1nc2ccc([N+](=O)[O-])cc2s1	–
33 µM	3 µM	CCN(CC)c1nc2ccc(Nc3ccccc3C(=O)O)cc2s1	–
5 µM	17 µM	O=C(O)c1ccccc1Nc1ccc2nc(Cl)sc2c1	–
–	–	CCCN(CCC)c1c([N+](=O)[O-])cc(S(=O)(=O)Nc2ccccn2)cc1[N+](=O)[O-]	IC50 [1]: 9 µM
–	–	CCO[C@H]1O[C@@H]2O[C@@]3(C)CC[C@H]4[C@H](C)CC[C@@H]([C@H]1C)[C@@]24OO3 [ARTEMOTIL]	IC50 (Leishmania donovani): 45 µM; IC50 (Plasmodium falciparum): 1000 µM
–	–	O=C(/C=C/C=C/c1ccc2c(c1)OCO2)NCC1CCCCC1	IC50 (Trypanosoma cruzi; Trypanosoma cruzi): 81 µM
23 µM	200 µM	CCN(CC)c1nc2ccc(N)cc2s1	–
–	–	CCCN(CCC)c1c([N+](=O)[O-])cc(S(=O)(=O)N(CC)CC)cc1[N+](=O)[O-]	IC50 [1]: 8 µM
–	–	[N-]=[N+]=NC(CO)COc1ccc(Oc2ccccc2)cc1 (configuration not stated)	IC50 (Trypanosoma cruzi; Trypanosoma cruzi): 70 µM
–	–	COc1ccc2cc3c4ccccc4nc-3n(C)c2c1	IC50 (Plasmodium falciparum): 2 µM; IC50 (Trypanosoma cruzi; Trypanosoma cruzi): 1 µM
–	–	c1ccc(CSCCOc2ccc(Oc3ccccc3)cc2)cc1	IC50 (Trypanosoma cruzi; Trypanosoma cruzi): 60 µM
–	–	O=C(/C=C/c1ccc2c(c1)OCO2)N1CCOCC1	IC50 (Trypanosoma cruzi; Trypanosoma cruzi): 96 µM
–	–	CNc1nc(NC)nc(N/N=C\c2ccc([N+](=O)[O-])o2)n1	IC50 [1]: 15 µM
30 µM	41 µM	O=C(O)c1ccccc1Nc1ccc2nc(Nc3ccccc3)sc2c1	–

IC50 (Leishmania infantum)	IC50 (Trichomonas vaginalis)	SMILES	further results
18 µM	18 µM	CC(=O)Nc1nc2ccc(Nc3ccccc3C(=O)O)cc2s1	–
151 µM	200 µM	Nc1ccc2nc(N)sc2c1	–
–	–	CCCN(CCC)c1c([N+](=O)[O-])cc(S(=O)(=O)N(C)C)cc1[N+](=O)[O-]	IC50 (Leishmania donovani): 100 µM; IC50 [1]: 6 µM
25 µM	166 µM	CN(C)c1ccc(Nc2nc3ccc([N+](=O)[O-])cc3s2)cc1	–
–	12 µM	C[C@@H]1[C@H](O)[C@@H](C)/C=C/C=C/C=C/C=C/C=C/C=C/C=C/[C@H](O[C@@H]2O[C@H](C)[C@@H](O)[C@H](N)[C@@H]2O)C[C@@H]2O[C@](O)(C[C@@H](O)C[C@@H](O)[C@H](O)CC[C@@H](O)C[C@@H](O)CC(=O)O[C@H]1C)C[C@H](O)[C@H]2C(=O)O [AMPHOTERICIN B]	–
15 µM	174 µM	O=[N+]([O-])c1ccc2nc(Nc3cccc(O)c3)sc2c1	–
–	–	Cc1ccc2c(c1)cc1c3ccccc3nc-1n2C	IC50 (Plasmodium falciparum): 2 µM; IC50 (Trypanosoma cruzi; Trypanosoma cruzi): 4 µM
–	–	CCCCCCN(CCCCCC)S(=O)(=O)c1cc([N+](=O)[O-])c(N(CCC)CCC)c([N+](=O)[O-])c1	IC50 (Leishmania donovani): 100 µM; IC50 [1]: 50 µM
–	–	C[C@]12CC[C@H](O)C[C@@H]1CC[C@@H]1[C@@H]2CC[C@@]2(C)[C@H]1CC[C@@H]2[C@@](C)(O)C1CCCCN1 (some centres not stated)	IC50 (Trypanosoma cruzi; Trypanosoma cruzi): 1 µM
1 µM	200 µM	CC(=O)Nc1nc2ccc([N+](=O)[O-])cc2s1	–
4 µM	200 µM	CN(C)c1nc2ccc([N+](=O)[O-])cc2s1	–
–	–	O=C(/C=C/C=C/c1ccc2c(c1)OCO2)OC1CCCCC1	IC50 (Trypanosoma cruzi; Trypanosoma cruzi): 83 µM
2 µM	200 µM	CN(C)c1nc2ccc(N)cc2s1	–
13 µM	22 µM	COc1cc(NS(C)(=O)=O)ccc1Nc1nc2ccc(Nc3ccccc3C(=O)O)cc2s1	–
–	–	Cn1c2nc3ccccc3c-2cc2cc(Br)ccc21	IC50 (Trypanosoma cruzi; Trypanosoma cruzi): 32 µM
237 µM	134 µM	O=C(O)c1ccccc1Nc1ccc2nc(Nc3cccc(O)c3)sc2c1	–
–	–	CCCN(CCC)c1c([N+](=O)[O-])cc(S(=O)(=O)Nc2ccc(Cl)c(Cl)c2)cc1[N+](=O)[O-]	IC50 [1]: 8 µM
–	–	CC(C)(C)OC(=O)NC(=N)c1ccc(NC(=O)Cn2cnc([N+](=O)[O-])c2)cc1	IC50 [1]: 200 µM
104 µM	200 µM	O=[N+]([O-])c1ccc2nc(NCCO)sc2c1	–
98 µM	200 µM	CCCNc1nc2ccc(N)cc2s1	–
–	–	O=C=NCCOc1ccc(Oc2ccccc2)cc1	IC50 (Trypanosoma cruzi; Trypanosoma cruzi): 70 µM
4 µM	158 µM	O=C(O)c1ccccc1Nc1ccc2nc(NCCO)sc2c1	–
80 µM	102 µM	CN(C)c1nc2ccc(Nc3ccccc3C(=O)O)cc2s1	–
99 µM	200 µM	CCN(CC)c1nc2ccc([N+](=O)[O-])cc2s1	–

IC50 (Leishmania infantum)	IC50 (Trichomonas vaginalis)	SMILES	further results
48 µM	2 µM	O=[N+]([O-])c1ccc2nc(Cl)sc2c1	–
65 µM	200 µM	CCN(CC)CCCNc1nc2ccc(N)cc2s1	–
–	–	COc1ccc(CCNC(=O)/C=C/C=C/c2ccc3c(c2)OCO3)cc1OC	IC50 (Trypanosoma cruzi; Trypanosoma cruzi): 66 µM
–	–	O=C(CCCCc1ccc2c(c1)OCO2)N1CCCCC1 [TETRAHYDROPIPERINE]	IC50 (Trypanosoma cruzi; Trypanosoma cruzi): 19 µM
–	–	c1ccc(Oc2ccc(OCN3CC3)cc2)cc1	IC50 (Trypanosoma cruzi; Trypanosoma cruzi): 42 µM
36 µM	186 µM	O=[N+]([O-])c1ccc2nc(Nc3ccccc3)sc2c1	–
3 µM	200 µM	Nc1ccc2nc(NCCO)sc2c1	–
–	–	O=C(/C=C/C=C/C=C/c1ccc2c(c1)OCO2)N1CCCCC1	IC50 (Trypanosoma cruzi; Trypanosoma cruzi): 7 µM
–	–	C[C@@H]1CC[C@H]2CC(=O)O[C@@H]3O[C@@]4(CCCc5ccc(Cl)cc5)CC[C@@H]1[C@@]23OO4	IC50 (Leishmania donovani): 11 µM
121 µM	200 µM	CC(=O)Nc1nc2ccc(N)cc2s1	–
–	3 µM	Cc1ncc([N+](=O)[O-])n1CCO [METRONIDAZOLE]	–
–	–	C[C@@H]1CC[C@H]2[C@@H](CCCc3ccc(S(C)(=O)=O)cc3)C(=O)O[C@@H]3O[C@@]4(C)CC[C@@H]1[C@]32OO4	IC50 (Leishmania donovani): 54 µM
73 µM	133 µM	CN(C)c1ccc(Nc2nc3ccc(N)cc3s2)cc1	–
–	–	CCCCN(CCCC)c1c([N+](=O)[O-])cc(S(=O)(=O)Nc2ccccc2)cc1[N+](=O)[O-]	IC50 (Leishmania donovani): 3 µM
–	–	CSCCOc1ccc(Oc2ccccc2)cc1	IC50 (Trypanosoma cruzi; Trypanosoma cruzi): 100 µM
–	–	COc1ccc2c(c1)cc1c3ccccc3nc-1n2C	IC50 (Plasmodium falciparum): 5 µM; IC50 (Trypanosoma cruzi; Trypanosoma cruzi): 2 µM
63 µM	208 µM	Nc1ccc2nc(Nc3ccccc3)sc2c1	–
–	–	C[C@@H]1CC[C@H]2[C@@H](CCCCc3ccccc3)C(=O)O[C@@H]3O[C@@]4(C)CC[C@@H]1[C@]32OO4	IC50 (Leishmania donovani): 8 µM
15 µM	83 µM	O=C(O)c1ccccc1Nc1ccc2nc(N3CCCCC3)sc2c1	–
–	–	CCCN(CCC)c1c([N+](=O)[O-])cc(S(=O)(=O)N(c2ccccc2)c2ccccc2)cc1[N+](=O)[O-]	IC50 (Leishmania donovani): 100 µM
6 µM	189 µM	O=[N+]([O-])c1ccc2nc(N3CCCCC3)sc2c1	–
–	–	CC(C)(C)OC(=O)NC(=N)c1ccc(NC(=O)Cn2ccnc2[N+](=O)[O-])cc1	IC50 [1]: 119 µM
–	–	[N-]=[N+]=NCCOc1ccc(Oc2ccccc2)cc1	IC50 (Trypanosoma cruzi; Trypanosoma cruzi): 70 µM
–	–	CCCC[C@H]1C(=O)O[C@@H]2O[C@@]3(C)CC[C@H]4[C@H](C)CC[C@@H]1[C@@]24OO3	IC50 (Leishmania donovani): 12 µM
